Results reported in patent publication US20140303105A1, “Primycin and components thereof for use in the treatment or prevention of infections caused by specific pathogens” (PANNONPHARMA GYÓGYSZERGYÁRTÓ ZRT., priority 2011, published 2014).

What was measured:
[1] = tested on: Staphylococcus aureus, methicillin susceptible; test: Standard microdilution susceptibility test, clinical isolates; type: cell-based; details: 10 clinical isolates
[2] = tested on: Enterococcus sp., vancomycin susceptible; test: as above; type: cell-based; details: 20 clinical isolates
[3] = tested on: Streptococcus pneumoniae, penicillin resistant; test: as above; type: cell-based
[4] = tested on: Bacillus subtilis ATCC 6633; test: Microdilution MIC, ATCC reference strains; type: cell-based
Experimental: (§1) Identification and characterization of resistance patterns of these bacteria were performed by standard methods.
(§2) When forming the test groups we attached great importance to the increasing incidence of drug-resistant microbes causing therapeutic problems. Most important of them are methicillin-resistant Staphylococcus aureus (MRSA), methicillin-resistant coagulase-negative Staphylococcus spp. (MRCoNS), penicillin-resistant Streptococcus pneumoniae (pneumococcus), vancomycin-resistant Enterococcus spp. (VRE). Pneumococcus isolates represented various serotypes, VRE isolates belonged to various species. Moreover, vancomycin-resistance of VRE isolates was based on different genetic backgrounds. Antibiotic-resistant strains were also represented among international reference strains, for example methicillin-resistant Staphylococcus aureus ATCC 43300 (MRSA), Staphylococcus aureus with decreased vancomycin susceptibility ATCC 700698 and 700699 (vancomycin intermediate Staphylococcus aureus—VISA), mupirocin-resistant Staphylococcus aureus ATCC BAA1708 and vancomycin-resistant Enterococcus faecalis ATCC 51299 (VRE).
(§3) Susceptibility tests were performed according to the standard microdilution method (NCCLS (CLSI) M7-A7).
(§4) The lowest concentration at which no bacterial growth was observed after the incubation period is the Minimal Inhibitory Concentration (MIC). The MIC value is inversely proportional to the antimicrobial efficacy. MIC values of antimicrobial agents can differ by species or even by bacterial strains within species.

[5] = tested on: Enterococcus faecalis ATCC 29212; test: Microdilution MIC, ATCC reference strains; type: cell-based
Experimental: as §1, §2, §3, §4

[6] = tested on: Enterococcus faecalis ATCC 51299 (VRE); test: Microdilution MIC, ATCC reference strains; type: cell-based
Experimental: as §1, §2, §3, §4

[7] = tested on: Enterococcus hirae ATCC 8043; test: Microdilution MIC, ATCC reference strains; type: cell-based
Experimental: as §1, §2, §3, §4

[8] = tested on: Escherichia coli ATCC 25922; test: Microdilution MIC, ATCC reference strains; type: cell-based
Experimental: as §1, §2, §3, §4

[9] = tested on: Staphylococcus aureus ATCC 25923; test: Microdilution MIC, ATCC reference strains; type: cell-based
Experimental: as §1, §2, §3, §4

[10] = tested on: Staphylococcus aureus ATCC 29213; test: Microdilution MIC, ATCC reference strains; type: cell-based
Experimental: as §1, §2, §3, §4

[11] = tested on: Staphylococcus aureus ATCC 43300 (MRSA); test: Microdilution MIC, ATCC reference strains; type: cell-based
Experimental: as §1, §2, §3, §4

[12] = tested on: Staphylococcus aureus ATCC 700698 (VISA); test: Microdilution MIC, ATCC reference strains; type: cell-based
Experimental: as §1, §2, §3, §4

[13] = tested on: Staphylococcus aureus ATCC 700699 (VISA); test: Microdilution MIC, ATCC reference strains; type: cell-based
Experimental: as §1, §2, §3, §4

[14] = tested on: Staphylococcus aureus ATCC BAA1708 (mupirocin-resistant); test: Microdilution MIC, ATCC reference strains; type: cell-based
Experimental: as §1, §2, §3, §4

Streptococcus ATCC 49619 = test: Microdilution MIC, ATCC reference strains; type: cell-based
Experimental: as §1, §2, §3, §4

[15] = tested on: Staphylococcus epidermidis 7586; details: cited from earlier work
[16] = tested on: Staphylococcus saprophyticus 8454; details: cited from earlier work
[17] = tested on: Staphylococcus hominis 7835; details: cited from earlier work
[18] = tested on: Streptococcus simulans 7866; details: cited from earlier work
Micrococcus spp. = details: cited from earlier work
[19] = tested on: Bacillus subtilis ATCC 6633; details: cited from earlier work
S. pyogenes = details: by Bryskier; cited from earlier work
Coryneform(s) = details: by Bryskier; cited from earlier work
B. subtilis ATCC 6633 = details: by Bryskier; cited from earlier work
[20] = tested on: laboratory strain Listeria monocytogenes; details: Uri 1986; cited from earlier work
Gram-negative species = details: Horváth 1979; the patent calls the statement unfounded; cited from earlier work
[21] = tested on: S. aureus and coagulase-negative staphylococci; details: Bryskier 2005; cited from earlier work

For Primycin, the “MIC 50%” value [1] was 0.06 µg/mL, the “MIC 90%” value [1] was 0.06 µg/mL and the “MIC Range” value [1] was 0.06-0.06 mg/L. The “Ratio of Sensitive/Total” value [1] was 10/10, the “MIC 50%” value [2] was 0.5 µg/mL and the “MIC 90%” value [2] was 0.5 µg/mL. The “MIC Range” value [2] was 0.5 to 1 µg/mL, the “Ratio of Sensitive/Total” value [2] was 20/20 and the “MIC 50%” value ([3]; 10 clinical isolates) was 0.5 µg/mL. For the same substance, the “MIC 90%” value ([3]; 10 clinical isolates) was 1 µg/mL, the “MIC Range” value ([3]; 10 clinical isolates) was 0.5 to 1 µg/mL and the “Ratio of Sensitive/Total” value ([3]; 10 clinical isolates) was 10/10. The MIC ([3]; single isolate, serotype 23(F)) was 0.5 µg/mL, the “Primycin MIC” value [4] was 0.03 µg/mL and the “Primycin MIC” value [5] was 0.5 µg/mL. For the same substance, the “Primycin MIC” value [6] was 1 µg/mL, the “Primycin MIC” value [7] was 0.5 µg/mL and the “Primycin MIC” value [8] was greater than 64 µg/mL. The “Primycin MIC” value [9] was 0.06 µg/mL, the “Primycin MIC” value [10] was 0.06 µg/mL and the “Primycin MIC” value [11] was 0.06 µg/mL. For the same substance, the “Primycin MIC” value [12] was 0.06 µg/mL, the “Primycin MIC” value [13] was 0.125 µg/mL and the “Primycin MIC” value [14] was 0.06 µg/mL. The “Primycin MIC” value (Streptococcus ATCC 49619) was 0.5 µg/mL, the MIC [15] was 0.78 µg/mL and the MIC [16] was 0.39 µg/mL. The MIC [17] was 0.39 µg/mL, the MIC [18] was 0.39 µg/mL and the MIC (Micrococcus spp.) was 0.78 µg/mL. The MIC [19] was 0.39 µg/mL, the MIC (S. pyogenes) was 1.56 µg/mL and the MIC (Coryneform(s)) was 50 µg/mL. The MIC (B. subtilis ATCC 6633) was 0.39 µg/mL, the MIC [20] was 0.25 µg/mL and the “MIC versus Gram-positives” value (Gram-negative species) was “hundred times higher”. The efficacy [21] was “effective”.
